According to patent US20240285541A1, “SHELF STABLE ORGANIC NUCLEOTIDE COMPOSITIONS AND METHODS OF MANUFACTURING THE SAME” (Glanbia Nutritionals, Inc., priority 2023, published 2024):

Assay: ATP stability over 362 days, processed under acidic and hot-fill conditions
Format: physicochemical
Conditions: acidic conditions (pH 2.8; b60 also says pH 2.5), hot-fill conditions
Source text: FIG. 5 is a graphical representation 500 of the unexpectedly good results achieved through the method and composition described in connection with FIG. 4. Specifically, the graphical representation 500 illustrates a comparison of ATP stability for a composition or product of the disclosure (specifically, Formula A prepared according to method 400) compared against a control ATP product processed under acidic conditions (pH 2.5) and hot-fill conditions. The ATP stability measurements were calculated over three hundred sixty-two (362 days). For the control ATP, pH 2.8 (Δ), y=116.03e^−0.012x, R^2=0.966. For the encapsulated ATP Formula A, pH 2.8 (Δ), y=100.37e^−0.003x, R^2=0.9591.
Specifically, Formula A continued to comprise about 33.43 wt % of ATP 100, 200 at the end of the 362 days, compared with the 1.44 wt % of ATP 100, 200 in the control ATP solution.
FIG. 7 is a graphical representation 700 of the unexpectedly good results achieved through the method and composition described in connection with FIG. 6. Specifically, the graphical representation 700 illustrates a comparison of ATP stability for a composition or product of the disclosure (specifically, Formula B prepared according to method 600) compared against a control ATP product processed under acidic conditions (pH 2.8) and hot-fill conditions. ATP stability measurements were calculated over three hundred sixty-two (362) days. […]

## Nc1ncnc2c1ncn2[C@@H]1O[C@H](COP(=O)(O)OP(=O)([O-])OP(=O)([O-])O)[C@@H](O)[C@H]1O.[Na+].[Na+] [control ATP, adenosine triphosphate (ATP) disodium salt]
  ATP 100, 200 comprised at the end of the 362 days: 1.44 wt %
